According to US20240208992A1, “MACROCYCLES AS CFTR MODULATORS” (Idorsia Pharmaceuticals Ltd, priority 2021, published 2024):

Target: human F508del-CFTR (Homo sapiens, UniProt P13569, DEL508-508)
Assay: F508del-CFTR cell surface expression (corrector activity), DiscoveRx ß-galactosidase complementation chemiluminescence assay in recombinant U2OS cell line;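 note: U2OS cells co-expressing ProLink-tagged F508del-CFTR and a membrane-anchored enzyme acceptor, where more surface CFTR restores β-galactosidase activity measured by chemiluminescence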
Details: U2OS cells, 16h compound incubation; for EC50: EC50, F508del-CFTR cell surface expression, geomean of several measurements; for Emax: U2OS, in relation to the Emax of the corrector lumacaftor (=100%), arithmetic mean

Sequence of human F508del-CFTR (P13569 with tags, fused parts or gaps DEL508-508): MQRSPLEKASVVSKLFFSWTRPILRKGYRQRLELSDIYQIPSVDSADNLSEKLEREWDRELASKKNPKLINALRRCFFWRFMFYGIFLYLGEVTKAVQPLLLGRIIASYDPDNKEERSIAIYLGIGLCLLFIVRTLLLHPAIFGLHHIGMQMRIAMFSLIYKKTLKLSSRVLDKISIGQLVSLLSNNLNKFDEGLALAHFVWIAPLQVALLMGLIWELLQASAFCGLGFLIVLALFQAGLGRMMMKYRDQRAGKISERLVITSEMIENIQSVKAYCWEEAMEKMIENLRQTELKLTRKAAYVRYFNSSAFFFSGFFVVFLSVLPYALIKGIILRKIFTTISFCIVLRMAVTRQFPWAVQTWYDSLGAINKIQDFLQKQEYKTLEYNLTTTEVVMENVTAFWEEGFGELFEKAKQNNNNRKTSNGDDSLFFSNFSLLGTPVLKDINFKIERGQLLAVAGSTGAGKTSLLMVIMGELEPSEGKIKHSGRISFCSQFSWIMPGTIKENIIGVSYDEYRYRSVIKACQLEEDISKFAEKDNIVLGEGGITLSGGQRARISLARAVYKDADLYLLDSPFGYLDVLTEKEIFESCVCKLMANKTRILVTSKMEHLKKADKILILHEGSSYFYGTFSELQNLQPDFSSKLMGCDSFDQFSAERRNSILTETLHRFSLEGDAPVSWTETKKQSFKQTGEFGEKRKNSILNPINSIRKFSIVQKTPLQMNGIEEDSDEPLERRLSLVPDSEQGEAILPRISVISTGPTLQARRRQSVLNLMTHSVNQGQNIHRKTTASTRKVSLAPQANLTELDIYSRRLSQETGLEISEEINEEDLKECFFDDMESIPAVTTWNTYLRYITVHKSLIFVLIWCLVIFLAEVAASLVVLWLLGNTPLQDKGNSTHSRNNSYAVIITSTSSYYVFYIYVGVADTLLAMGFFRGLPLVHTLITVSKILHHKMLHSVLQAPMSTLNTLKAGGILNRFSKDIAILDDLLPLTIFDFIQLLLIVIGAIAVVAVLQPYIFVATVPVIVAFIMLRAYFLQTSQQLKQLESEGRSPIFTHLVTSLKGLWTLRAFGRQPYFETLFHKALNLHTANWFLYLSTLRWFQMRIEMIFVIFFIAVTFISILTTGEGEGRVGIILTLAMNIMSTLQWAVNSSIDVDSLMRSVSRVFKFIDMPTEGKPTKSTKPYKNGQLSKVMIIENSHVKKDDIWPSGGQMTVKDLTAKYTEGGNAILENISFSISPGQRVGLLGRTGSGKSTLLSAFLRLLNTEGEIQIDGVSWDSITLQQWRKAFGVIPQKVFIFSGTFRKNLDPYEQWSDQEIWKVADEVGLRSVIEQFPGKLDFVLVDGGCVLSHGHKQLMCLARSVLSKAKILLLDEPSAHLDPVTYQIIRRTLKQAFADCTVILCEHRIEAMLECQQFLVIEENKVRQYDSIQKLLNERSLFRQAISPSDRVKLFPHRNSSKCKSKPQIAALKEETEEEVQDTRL

| EC50 [nM] | Emax [%] | SMILES |
| --- | --- | --- |
| 231 | 393 | Cc1cc2c3c(ccc2cn1)OC[C@@H](Cc1ccccc1)NC(=O)[C@@H](Cc1nc(C(F)F)no1)N(C)C(=O)[C@H](CC(C)C)N(C)C(=O)C[C@@H](C(=O)NCCn1nnc(C2CC2)n1)NC3=O [Example 921, (3S,7S,10R,13R)-13-benzyl-N-(2-(5-cyclopropyl-2H-tetrazol-2-yl)ethyl)-10-((3-(difluoromethyl)-1,2,4-oxadiazol-5-yl)methyl)-7-isobutyl-6,9,20-trimethyl-1,5,8,11-tetraoxo-1,2,3,4,5,6,7,8,9,10,11,12,13,14-tetradecahydro-[1]oxa[4,7,10,14]tetraazacycloheptadecino[16,17-f]isoquinoline-3-carboxamide] |
| 302 | 396 | COc1noc(CCNC(=O)[C@@H]2CC(=O)N(C)[C@@H](CC(C)C)C(=O)N(C)C3(CC(F)(F)C3)C(=O)N[C@H](Cc3ccccc3)COc3ccc4ncc(F)cc4c3C(=O)N2)n1 [Example 922, (3′S,7′S,13′R)-13′-benzyl-3,3,20′-trifluoro-7′-isobutyl-N-(2-(3-methoxy-1,2,4-oxadiazol-5-yl)ethyl)-6′,9′-dimethyl-1′,5′,8′,11′-tetraoxo-2′,3′,4′,5′,6′,7′,8′,9′,11′,12′,13′,14′-dodecahydro-1′H-spiro[cyclobutane-1,10′-[1]oxa[4,7,10,14]tetraazacycloheptadecino[16,17-f]quinoline]-3′-carboxamide] |
| 26 | 500 | Cc1cc2c(c3cccnc13)C(=O)N[C@H](C(=O)NCCn1nnc(C3CC3)n1)CC(=O)N(C)[C@@H](CC(C)C)C(=O)N(C)[C@H](Cc1nc(C(F)(F)F)no1)C(=O)N[C@H](Cc1ccccc1)CO2 [Example 923, (3S,7S,10R,13R)-13-benzyl-N-(2-(5-cyclopropyl-2H-tetrazol-2-yl)ethyl)-7-isobutyl-6,9,17-trimethyl-1,5,8,11-tetraoxo-10-((3-(trifluoromethyl)-1,2,4-oxadiazol-5-yl)methyl)-1,2,3,4,5,6,7,8,9,10,11,12,13,14-tetradecahydro-[1]oxa[4,7,10,14]tetraazacycloheptadecino[16,17-f]quinoline-3-carboxamide] |
| 33 | 409 | CC(C)C[C@H]1C(=O)N(C)[C@H](Cc2nc(C(F)(F)F)no2)C(=O)N[C@H](Cc2ccccc2)COc2ccc3ncc(F)cc3c2C(=O)N[C@H](C(=O)NCCn2nnc(C3CC3)n2)CC(=O)N1C [Example 924, (3S,7S,10R,13R)-13-benzyl-N-(2-(5-cyclopropyl-2H-tetrazol-2-yl)ethyl)-20-fluoro-7-isobutyl-6,9-dimethyl-1,5,8,11-tetraoxo-10-((3-(trifluoromethyl)-1,2,4-oxadiazol-5-yl)methyl)-1,2,3,4,5,6,7,8,9,10,11,12,13,14-tetradecahydro-[1]oxa[4,7,10,14]tetraazacycloheptadecino[16,17-f]quinoline-3-carboxamide] |
| 92 | 286 | CC(C)C[C@H]1C(=O)N(C)[C@H](Cc2nc(C(F)(F)F)no2)C(=O)N[C@H](Cc2ccccc2)COc2ccc3ncc(F)cc3c2C(=O)N[C@H](C(=O)NCCCOC(F)(F)F)CC(=O)N1C [Example 925, (3S,7S,10R,13R)-13-benzyl-20-fluoro-7-isobutyl-6,9-dimethyl-1,5,8,11-tetraoxo-N-(3-(trifluoromethoxy)propyl)-10-((3-(trifluoromethyl)-1,2,4-oxadiazol-5-yl)methyl)-1,2,3,4,5,6,7,8,9,10,11,12,13,14-tetradecahydro-[1]oxa[4,7,10,14]tetraazacycloheptadecino[16,17-f]quinoline-3-carboxamide] |
| 759 | 416 | COc1cc(CCNC(=O)[C@@H]2CC(=O)N(C)[C@@H](CC(C)C)C(=O)N(C)[C@]3(C[C@H](OC)C3)C(=O)N[C@H](Cc3ccccc3)COc3ccc4ncc(F)cc4c3C(=O)N2)on1 [Example 926, (1r,3S,3′S,7′S,13′R)-13′-benzyl-20′-fluoro-7′-isobutyl-3-methoxy-N-(2-(3-methoxyisoxazol-5-yl)ethyl)-6′,9′-dimethyl-1′,5′,8′,11′-tetraoxo-2′,3′,4′,5′,6′,7′,8′,9′,11′,12′,13′,14′-dodecahydro-1′H-spiro[cyclobutane-1,10′-[1]oxa[4,7,10,14]tetraazacycloheptadecino[16,17-f]quinoline]-3′-carboxamide] |
| 27 | 492 | COc1noc(CCNC(=O)[C@@H]2CC(=O)N(C)[C@@H](CC(C)C)C(=O)N(C)[C@H](Cc3nc(C(F)(F)F)no3)C(=O)N[C@H](Cc3ccccc3)COc3cc(C)c4ncccc4c3C(=O)N2)n1 [Example 927, (3S,7S,10R,13R)-13-benzyl-7-isobutyl-N-(2-(3-methoxy-1,2,4-oxadiazol-5-yl)ethyl)-6,9,17-trimethyl-1,5,8,11-tetraoxo-10-((3-(trifluoromethyl)-1,2,4-oxadiazol-5-yl)methyl)-1,2,3,4,5,6,7,8,9,10,11,12,13,14-tetradecahydro-[1]oxa[4,7,10,14]tetraazacycloheptadecino[16,17-f]quinoline-3-carboxamide] |
| 971 | 247 | Cc1cc2c(c3cccnc13)C(=O)N[C@H](C(=O)NCCn1nnc(C3CC3)n1)CC(=O)N(C)[C@@H](CC(C)C)C(=O)N1CCCCC1C(=O)N[C@H](Cc1ccccc1)CO2 (stereo partly drawn) [Example 928, (9S,13S,19aS,22R)-22-benzyl-N-(2-(5-cyclopropyl-2H-tetrazol-2-yl)ethyl)-13-isobutyl-2,12-dimethyl-7,11,14,20-tetraoxo-7,8,9,10,11,12,13,14,17,18,19,19a,20,21,22,23-hexadecahydro-16H-pyrido[2′,1′:6,7][1]oxa[4,7,10,14]tetraazacycloheptadecino[16,17-f]quinoline-9-carboxamide] |
| 306 | 513 | CCOCC[C@@H]1C(=O)N[C@H](Cc2ccccc2)COc2ccc3ncc(F)cc3c2C(=O)N[C@H](C(=O)NCCc2nc(OC)no2)CC(=O)N(C)[C@@H](CC(C)C)C(=O)N1C [Example 929, (3S,7S,10R,13R)-13-benzyl-10-(2-ethoxyethyl)-20-fluoro-7-isobutyl-N-(2-(3-methoxy-1,2,4-oxadiazol-5-yl)ethyl)-6,9-dimethyl-1,5,8,11-tetraoxo-1,2,3,4,5,6,7,8,9,10,11,12,13,14-tetradecahydro-[1]oxa[4,7,10,14]tetraazacycloheptadecino[16,17-f]quinoline-3-carboxamide] |
| 142 | 460 | COc1noc(CCNC(=O)[C@@H]2CC(=O)N(C)[C@@H](CC(C)C)C(=O)N3CCCC[C@@H]3C(=O)N[C@H](Cc3ccccc3)COc3cnc4ccc(F)cc4c3C(=O)N2)n1 [Example 930, (9S,13S,19aR,22R)-22-benzyl-5-fluoro-13-isobutyl-N-(2-(3-methoxy-1,2,4-oxadiazol-5-yl)ethyl)-12-methyl-7,11,14,20-tetraoxo-7,8,9,10,11,12,13,14,17,18,19,19a,20,21,22,23-hexadecahydro-16H-pyrido[2′,1′:6,7][1]oxa[4,7,10,14]tetraazacycloheptadecino[17,16-c]quinoline-9-carboxamide] |
